Results: US8846345B2, “Recombinant cell line” (The Queen's University of Belfast, priority 2002, dated 2014)

B2: IL-12 β-chain (p40), carboxyterminally hexahistidine-tagged (HIBERNIA.1 cells, pIND(SP1)-p40H) (ligand)
chain: IWELKKDVYVVELDWYPDAPGEMVVLTCDTPEEDGITWTLDQSSEVLGSGKTLTIQVKEFGDAGQYTCHKGGEVLSHSLLLLHKKEDGIWSTDILKDQKEPKNKTFLRCEAKNYSGRFTCWWLTTISTDLTFSVKSSRGSSDPQGVTCGAATLSAERVRGDNKEYEYSVECQEDSACPAAEESLPIEVMVDAVHKLKYENYTSSFFIRDIIKPDPPKNLQLKPLKNSRQVEVSWEYPDTWSTPHSYFSLTFCVQVQGKSKREKKDRVFTDKTSATVICRKNASISVRAQDRYYSSSWSEWASVPCSHHHHHH
notes: mature; Secreted by HIBERNIA.1 cells as a monomer (about 40 kD) and as a disulfide-bonded homodimer (about 80 kD); also called β chain homodimer (80 kD form)

Tests used:
[1] = test system: IL-12 α and β monomer forms; assay: Inhibitor assay: secretion of IL-12 α and β monomer forms; settings: 16 hr treatment
EcR293 cells = assay: MTT cytotoxicity test; type: cell-based, human
Protocol: The mitochondrial ...MTT test is widely use as a cytotoxicity test. This test is principally based on the propensity of mitochondrial dehydrogenases to cleave the tetrazolium ring of. The viability of cells is proportional to the activity of mitochondrial dehydrogenases. Cleavage of the tetrazolium ring results in the formation of purple formazan crystals. We used the MTT assay to quantify cytotoxicity of celecoxib on EcR293 cells. The test was performed in 96-well plates in which 10^5 cells per well were plated the day before application of the MTT test. Following addition of celecoxib to the culture medium, cells were induced by ponasterone A, as explained before. After 16 hours of induction, the MTT reagent (10 μl of 100 mg/ml stock solution) was added to the cells. Two hours later, the medium was removed, and the cells were dissolved in DMSO. DMSO solubilizes formazan crystals. Absorbance was measured at 550 nm using a 96-well plate spectrophotometer.

mRNA of IL-12 = assay: Effect on IL-12 mRNA; type: cell-based, human
[2] = molecular target: the molecule itself; assay: non-reducing SDS-PAGE of medium of recombinant cell lines secreting the α chain
[3] = molecular target: B2; assay: co-expression; non-reducing and reducing SDS-PAGE with anti-α-chain and anti-β-chain immunoblots
[4] = molecular target: the molecule itself; assay: non-reducing SDS-PAGE and anti-β-chain immunoblot of secreted fraction

**Q.** Which “secretion of IL-12 α and β monomer forms” value [1] does the source give for `CNc1ccc2oc(C[C@H]3O[C@@]4(CC[C@H]3C)O[C@H]([C@H](C)C(=O)c3ccc[nH]3)[C@H](C)C[C@H]4C)nc2c1C(=O)O` [A23187] here?
**A.** suppressed by neither

**Q.** And the “concentration at which toxicity was observed (MTT test)” value (EcR293 cells; 16 hr test period)?
**A.** > 10 µM

**Q.** Which results are given for `Cc1ccc(-c2cc(C(F)(F)F)nn2-c2ccc(S(N)(=O)=O)cc2)cc1` [Celecoxib, 4-[5-(4-methylpheny)-3-(trifluoromethyl)-IH-pyrazol-I-yl]benzenesulfonamide]?
**A.** effect on mRNA of IL-12 (mRNA of IL-12): no effect; concentration at which toxicity was observed (MTT test) (EcR293 cells; human, 16 h): ≥ 100 µM

**Q.** Which “secretion of IL-12 α and β monomer forms” value [1] does the source give for `C/C=C(/C)C(=O)O[C@H]1C(C)=C2[C@H]([C@@H]1OC(=O)CCCCCCC)[C@@](C)(OC(C)=O)C[C@H](OC(=O)CCC)[C@@]1(O)[C@H]2OC(=O)[C@@]1(C)O` [thapsigargin] here?
**A.** suppressed by neither

**Q.** What about the “concentration at which toxicity was observed (MTT test)” value (EcR293 cells; human, 16 h) of the same molecule?
**A.** 5 to 10 µM

B1: IL-12 α-chain (p35), carboxyterminal hexahistidine-tagged (ligand)
chain: RNLPVATPDPGMFPCLHHSQNLLRAVSNMLQKARQTLEFYPCTSEEIDHEDITKDKTSTVEACLPLELTKNESCLNSRETSFITNGSCLASRKTSFMMALCLSSIYEDLKMYQVEFKTMNAKLLMDPKRQIFLDQNMLAVIDELMQALNFNSETVPQKSSLEEPDFYKTKIKLCILLHAFRIRAVTIDRVMSYLNASHHHHHH
notes: mature; Expressed in EcR293 or HIBERNIA.1 cells from pIND-p35H or pIND(SP1)-p35H; N-glycosylated; also called p35H; His-tagged α-chain
**Q.** What does the source list for B1?
**A.** binding result [2]: no binding; binding result [3]: binds

**Q.** Does B2 bind [4]?
**A.** binds
